Measured values taken from US20020193379A1, “Compositions and methods for decreasing the risk of or preventing neural tube disorders in mammals” (Insmed Incorporated, priority 2001, published 2002).
Where two headings read alike, the source gives them in different places.

What was measured:
curly-tail mouse embryos = test: In vitro culture of curly-tail mouse embryos with inositols at 20 μg/ml for 24 hours; format: cell-based; settings: for Mean posterior neuropore length / Mean posterior neuropore to crown-rump length ratio: in vitro; for Fold decrease in mean posterior neuropore length: 24 hours of treatment in vitro
Protocol: In in vitro studies, curly-tail mouse embryos were explanted into culture at 9.5 days after conception, corresponding to the onset of low spinal cord neural tube closure. Inositol additions were made at the start of culture and were maintained throughout the 24 hour culture period. Inositols were maintained at 20 μg/ml. At the end of culture, the embryos were dissected from their extraembryonic membranes, and crown-rump and posterior neuropore lengths were measured as indices of developmental growth, progression and low spinal neural tube closure.

[1] = test system: curly tail mouse fetuses (NTDs characterized by spina bifida); test: In vivo treatment of pregnant curly-tail mice by oral gavage, fetuses scored for NTDs; settings: three days; for Number of fetuses showing NTDs characterized by spina bifida / Percent of treated fetuses showing spina bifida: oral gavage 400 mg/kg twice daily
Protocol: (§1) In in vivo studies, pregnant curly-tail female mice were treated with inositols or PBS (control) by either subcutaneous injection or oral gavage. Using inositols at 75 mg/ml injected by subcutaneous minipump at […], a total daily dosage of 90 mg/kg/day was administered. Inositols were administered from gestational day 8.5 through day 18.5, and fetuses were scored for NTDs on days 12.5 and 18.5. For oral dosing, mice were administered via gavage with 400 mg/kg of inositol twice daily on gestational days 8.5 through 10.5, with fetuses scored for NTDs on day 12.5.

[2] = test system: curly tail mouse fetuses (NTDs characterized by spina bifida); test: In vivo treatment of pregnant curly-tail mice by subcutaneous minipump, fetuses scored for NTDs; settings: subcutaneous 90 mg/kg/day, four to ten days
Protocol: as §1

[3] = test system: curly tail embryos (posterior neuropore closure); format: cell-based, mouse; settings: for Effect on posterior neuropore length: vs PBS-treated controls
Protocol: (§2) Mice—Curly tail mice are maintained as a homozygous, random-bred stock (Van Straaten, H. W. M. & Copp, A. J., Anat. Embryol. 203, 225-237 (2001)) Experimental litters were generated by timed matings, and the day of finding a copulation plug was designated embryonic day (E) 0.5.
In vitro inositol treatment—E9.5 embryos (17-19 somite stage) were cultured for 24 hours at 38° C. in whole rat serum. Thirty minutes after the start of culture, myo-inositol (Sigma, UK) or D-chiro-inositol (Insmed, Va., USA) was added to the medium (62.5 μl of inositol stock per ml rat serum) to a final concentration of 5, 10, 20 or 50 μg/ml inositol. Control cultures received an equal volume of phosphate buffered saline (PBS). Following culture, embryos were scored for: (i) posterior neuropore length (the distance from the rostral end of the posterior neuropore to the tip of the tail bud), (ii) crown-rump length and (iii) somite number.

[4] = test system: rat fibroblasts expressing the human insulin receptor; settings: cited from earlier work
[5] = test system: curly tail mice (spinal NTDs); settings: cultured embryos and offspring of curly tail mice treated during pregnancy; cited from earlier work
[6] = test system: curly tail fetuses (spina bifida and tail flexion defects); format: in vivo, mouse; settings: for Likelihood of fetuses being normal vs PBS (ordinal multilevel regression): subcutaneous; for Decrease in spina bifida frequency relative to PBS controls: subcutaneous 72 and 144 μg/g body weight/day
Protocol: as §2
In utero inositol treatment (subcutaneous administration)—For sub-cutaneous administration, osmotic mini-pumps (capacity 100 μl, delivery rate 1 μl/hour; Model 1003D, Alzet) were filled with solutions of 30, 75 or 150 mg/ml inositol (delivering 29, 72 and 144 μg inositol/g body weight/day respectively for a 25 g mouse), or PBS as a control. Mini-pumps were incubated in sterile PBS at 37° C. for 4 hours and then implanted subcutaneously on the back of pregnant mice at E8.5. General anesthesia was induced by an intra-peritoneal injection of 0.01 ml/g body weight of a solution comprising 10% Hypnovel® (midazolam 5 mg/ml) and 25% Hypnorm® (fentanyl citrate 0.315 mg/ml, fluanisone 10 mg/ml) in sterile distilled water.
(§3) Pregnant females were killed at E18.5, and the total number of implantations, classified as viable fetuses or resorptions, was recorded. Fetuses were dissected from the uterus and inspected immediately for the presence of open lumbo-sacral spina bifida and tail flexion defects: the primary manifestations of the curly tail genetic defect.

[7] = test system: curly tail fetuses (spina bifida and tail flexion defects); test: In utero inositol treatment, oral dosing by gavage, fetuses inspected at E18.5; format: in vivo, mouse; settings: for Curly tail, % of total for treatment group / Curly tail, number of fetuses / No. uterine resorptions / No. viable fetuses / Normal, % of total for treatment group / Normal, number of fetuses / Resorptions as % of total number of implantations / Spina bifida ± curly tail, % of total for treatment group / Spina bifida ± curly tail, number of fetuses / Mean litter size ± SEM: oral 800 μg inositol/g body weight/day; for Mean litter size ± SEM: viable fetuses per litter; for Reduction in the frequency of spina bifida / Effect on frequency of spina bifida among offspring: oral 800 μg/g body weight/day; for Effect on frequency of spina bifida among offspring: E8.5 to E10.5; for Likelihood of fetuses being normal vs PBS (ordinal multilevel regression): oral dosing study
Protocol: as §2
In utero inositol treatment (oral dosing)—For oral administration, pregnant mice were gavaged with 0.5 ml inositol solution in PBS at 12 hourly intervals from E8.5 to E10.5 (six doses in total; 800 μg/g body weight/day).
as §3

NTDs = settings: folic acid supplementation in early pregnancy; cited from earlier work
[8] = test system: rats rendered diabetic by streptozotocin; settings: cited from earlier work
[9] = test system: patients with polycystic ovary syndrome; settings: cited from earlier work
[10] = subcutaneous 29 μg inositol/g body weight/day
[11] = subcutaneous 72 μg inositol/g body weight/day
[12] = subcutaneous 144 μg inositol/g body weight/day

Structure (SMILES): O[C@H]1[C@H](O)[C@@H](O)[C@H](O)[C@@H](O)[C@H]1O [myo-inositol, reference compound]
- Mean posterior neuropore length (curly-tail mouse embryos; 20 μg/ml, 24 hours): 0.601±0.090
- Mean posterior neuropore to crown-rump length ratio (curly-tail mouse embryos; 20 μg/ml, 24 hours): 0.172 ±0.026
- Fold decrease in mean posterior neuropore length (curly-tail mouse embryos): 6 fold
- Number of fetuses showing NTDs characterized by spina bifida [1]: 3
- Percent of treated fetuses showing spina bifida [1]: 8.6%
- Number of fetuses showing NTDs characterized by spina bifida [2]: 4
- Percent of treated fetuses showing spina bifida [2]: 6.3%
- Crown-rump length compared with PBS-treated controls [3]: no significant difference
- Effect on posterior neuropore length ([3]; 20 μg/ml): not different from PBS-treated controls
- Effect on posterior neuropore length ([3]; 50 μg/ml): comparable effect
- Effect of insulin stimulation on incorporation into phospholipids [4]: only marginal
- Effect on incidence of spinal NTDs [5]: significantly reducing the incidence of spinal NTDs
- Likelihood of fetuses being normal vs PBS (ordinal multilevel regression) [6]: reached statistical significance
- Curly tail, % of total for treatment group [6, 10]: 41.4%
- Curly tail, number of fetuses [6, 10]: 12
- Normal, % of total for treatment group [6, 10]: 37.9%
- Normal, number of fetuses [6, 10]: 11
- Spina bifida ± curly tail, % of total for treatment group [6, 10]: 20.7%
- Spina bifida ± curly tail, number of fetuses [6, 10]: 6
- Curly tail, % of total for treatment group [6, 11]: 55.2%
- Curly tail, number of fetuses [6, 11]: 37
- Normal, % of total for treatment group [6, 11]: 38.8%
- Normal, number of fetuses [6, 11]: 26
- Spina bifida ± curly tail, % of total for treatment group [6, 11]: 6.0%
- Spina bifida ± curly tail, number of fetuses [6, 11]: 4
- Curly tail, % of total for treatment group [6, 12]: 55.3%
- Curly tail, number of fetuses [6, 12]: 52
- Normal, % of total for treatment group [6, 12]: 36.2%
- Normal, number of fetuses [6, 12]: 34
- Spina bifida ± curly tail, % of total for treatment group [6, 12]: 8.5%
- Spina bifida ± curly tail, number of fetuses [6, 12]: 8
- Decrease in spina bifida frequency relative to PBS controls [6]: 54-56%
- Curly tail, % of total for treatment group [7]: 42.9%
- Curly tail, number of fetuses [7]: 15
- No. uterine resorptions [7]: 3
- No. viable fetuses [7]: 35
- Normal, % of total for treatment group [7]: 48.6%
- Normal, number of fetuses [7]: 17
- Resorptions as % of total number of implantations [7]: 7.9%
- Spina bifida ± curly tail, % of total for treatment group [7]: 8.6%
- Spina bifida ± curly tail, number of fetuses [7]: 3
- Mean litter size ± SEM [7]: 5.83 ± 0.48
- Reduction in the frequency of spina bifida [7]: 53%
- Effect on frequency of spina bifida among offspring [7]: marked reduction in the frequency of spina bifida
- Likelihood of fetuses being normal vs PBS (ordinal multilevel regression) [7]: did not differ significantly

Structure (SMILES): Nc1nc2ncc(CNc3ccc(C(=O)N[C@@H](CCC(=O)O)C(=O)O)cc3)nc2c(=O)[nH]1 [folic acid]
- NTDs that can be prevented (NTDs): Up to 70%

Structure (SMILES): OC1C(O)C(O)C(O)C(O)C1O [D-chiro-inositol]
- Reduction in plasma glucose level compared with exogenous myo-inositol [8]: much larger reduction in plasma glucose level
- Mean posterior neuropore length (curly-tail mouse embryos; 20 μg/ml, 24 hours): 0.095±0.055
- Mean posterior neuropore to crown-rump length ratio (curly-tail mouse embryos; 20 μg/ml, 24 hours): .029±.018
- Fold decrease in mean posterior neuropore to crown-rump length ratio (curly-tail mouse embryos; 20 μg/ml, 24 hours, compared to control or myo-inositol treated): 5.6 fold
- Fold decrease in mean posterior neuropore length (curly-tail mouse embryos): 6 fold
- Number of fetuses showing NTDs characterized by spina bifida [1]: 1
- Percent of treated fetuses showing spina bifida [1]: 2.3%
- Fold decrease in number of fetuses with spina bifida compared to control ([1]; oral): 8 fold
- Fold decrease in number of fetuses with spina bifida compared to myo-inositol ([1]; oral): 3 fold
- Effect on the action of insulin [9]: increase the action of insulin
- Fold decrease in number of fetuses with spina bifida compared to control [2]: 9 fold
- Fold decrease in number of fetuses with spina bifida compared to myo-inositol [2]: 4 fold
- Number of fetuses showing NTDs characterized by spina bifida [2]: 1
- Percent of treated fetuses showing spina bifida [2]: 1.7%
- Crown-rump length compared with PBS-treated controls [3]: no significant difference
- Effect on posterior neuropore length ([3]; 20 μg/ml): reduced neuropore length
- Effect on posterior neuropore length ([3]; 50 μg/ml): reduced neuropore length
- Effect on posterior neuropore length ([3]; 5-10 μg/ml): not different from PBS-treated controls
- Effect of insulin stimulation on incorporation into phospholipids [4]: significant increase
- Likelihood of fetuses being normal vs PBS (ordinal multilevel regression) [6]: significantly more likely to be normal
- Curly tail, % of total for treatment group [6, 10]: 65.4%
- Curly tail, number of fetuses [6, 10]: 17
- Normal, % of total for treatment group [6, 10]: 23.1%
- Normal, number of fetuses [6, 10]: 6
- Spina bifida ± curly tail, % of total for treatment group [6, 10]: 11.5%
- Spina bifida ± curly tail, number of fetuses [6, 10]: 3
- Curly tail, % of total for treatment group [6, 11]: 45.4%
- Curly tail, number of fetuses [6, 11]: 39
- Normal, % of total for treatment group [6, 11]: 52.3%
- Normal, number of fetuses [6, 11]: 45
- Spina bifida ± curly tail, % of total for treatment group [6, 11]: 2.3%
- Spina bifida ± curly tail, number of fetuses [6, 11]: 2
- Curly tail, % of total for treatment group [6, 12]: 46.5%
- Curly tail, number of fetuses [6, 12]: 46
- Normal, % of total for treatment group [6, 12]: 48.5%
- Normal, number of fetuses [6, 12]: 48
- Spina bifida ± curly tail, % of total for treatment group [6, 12]: 5.0%
- Spina bifida ± curly tail, number of fetuses [6, 12]: 5
- Decrease in spina bifida frequency relative to PBS controls [6]: 73-83%
- Curly tail, % of total for treatment group [7]: 30.8%
- Curly tail, number of fetuses [7]: 12
- No. uterine resorptions [7]: 3
- No. viable fetuses [7]: 39
- Normal, % of total for treatment group [7]: 66.7%
- Normal, number of fetuses [7]: 26
- Resorptions as % of total number of implantations [7]: 7.1%
- Spina bifida ± curly tail, % of total for treatment group [7]: 2.6%
- Spina bifida ± curly tail, number of fetuses [7]: 1
- Mean litter size ± SEM [7]: 6.50 ± 1.09
- Reduction in the frequency of spina bifida [7]: 86%
- Effect on frequency of spina bifida among offspring [7]: marked reduction in the frequency of spina bifida
- Likelihood of fetuses being normal vs PBS (ordinal multilevel regression) [7]: more likely to be normal
